Read-outs that look alike come from different tables or passages of the source.

We go through six compounds from patent US6503545B1 (Brandeis University, priority 1999, dated 2003).

The conditions of series [1]: 150 mg natural and 150 mg synthetic daily in soft gelatin capsule, ten days; cited from earlier work.
For series [2] the following is noted: per 1 mg, National Formulary; cited from earlier work.
Series [3] in a line: Loss of vitamin E during milk processing (pasteurization). The series is classed as physicochemical. The settings on record: heating, e.g. pasteurization. How it is done: In addition, as Applicant has described, normal processing of milk and other food products commonly includes heating, e.g., pasteurization.
Preparation of Vitamin E-Fortified Milks: Pasteurized non-fat (skim) milk containing 2,000 I.U. per quart vitamin A palmitate and 400 I.U. per quart vitamin D2 was prepared by H.P. Hood, Inc. (Chelsea Mass.). […] Fortified cream or oil was then blended with non-fortified skim milk to make three vitamin E-fortified milks containing fat (see below). […] Milk processing losses of vitamin E were measured and were compensated, by including an excess of vitamin E in the each milk formulation equal to the measured processing loss. Four milks were formulated as follows: […]
Preparation of Vitamin E-Fortified Milks: Preparation of milks, and the packaging and storage of milks by H.P. Hood, Inc. (Chelsea Mass.) were carried out as described for vitamin E-fortified milks in the first clinical study (see milk #3), except that the new milk (milk #21) was fortified with only 15 IU of all-rac-α-tocopherol acetate per serving. A portion of the milk batch was prepared without vitamins A and D (milk #20).

For series [4] the following is noted: supplements greater than 100 IU per day, 6 years, elderly; cited from earlier work.
The conditions of series [5]: ingestion of 1200 IU per day; cited from earlier work.
Series [6] can be described thus: Stability of vitamin E in fortified milks and orange juice during refrigerated storage. The series is classed as physicochemical. The settings on record: 2-3 weeks in refrigerated milk. The source says: The stability of all-rac E, oil was also monitored in regular 1% milkfat-containing milk (abbreviated “regular milk”). […] Although the starting levels of vitamin E were not identical in the beverages studied, all products were stored identically (see above) up to the time of the vitamin assay. Since the nominal shelf-life for milk is two weeks, and for refrigerated orange juice is four weeks, comparisons of vitamin E losses were made after three weeks storage.

For series [7] the following is noted: in vivo; cited from earlier work.
For another series, the system named is LDL. As to conditions: gel-capsule, ex vivo lag time; cited from earlier work.
For series [8] the following is noted: cited from earlier work.
For series [9] the following is noted: cited from earlier work; for Vit. E/Chol. ratio Incr.: above basal fasting ratio.
The conditions of series [10]: 400 IU daily soft gel capsule, six years, 601 subjects; cited from earlier work.

`CC(=O)Oc1c(C)c(C)c2c(c1C)CC[C@@](C)(CCC[C@H](C)CCC[C@H](C)CCCC(C)C)O2` [RRR-α-tocopherol acetate]: the “competitive bioavailability in plasma versus all-rac-α-tocopherol acetate” value in [1] is reported as “up to two-fold greater”. Besides, in series [2], the “specific activity (IU per milligram)” value is recorded as 1.36 IU.

Turning to vitamin E, in series [3], the “loss of vitamin E associated with processing, generally” value is listed as 20-25% and the “loss of vitamin E associated with processing, typically” value is listed as 10-30%. Further, in [4], the “reduction of CHD mortality” value is recorded as 41-47%, the “reduction of all-cause mortality” value is listed as 27-34% and the “reduction of cancer mortality” value is given as 22-23%. Further, the adverse effects entry in [5] is given as “no adverse effects have been observed”. The “shelf-life loss of vitamin E” value in series [6] is on record as “about 15%”.

In the case of `Cc1c(C)c2c(c(C)c1O)CC[C@@](C)(CCC[C@H](C)CCC[C@H](C)CCCC(C)C)O2` [α-tocopherol], the “supplemented dose excreted in the feces” value in series [7] was 80-90%.

Turning to `Cc1c(C)c2c(c(C)c1O)CCC(C)(CCCC(C)CCCC(C)CCCC(C)C)O2` (racemic) [all-rac-α-tocopherol], the “minimum dose which significantly decreases the susceptibility of LDL to oxidation” value in the series on LDL is recorded as 400 IU/per day. Also, in series [2], the “specific activity (IU per milligram)” value is reported as 1.10 IU.

Consider `Cc1c(C)c2c(c(C)c1O)CC[C@@](C)(CCC[C@H](C)CCC[C@H](C)CCCC(C)C)O2` [RRR-α-tocopherol], for which, in [2], the “specific activity (IU per milligram)” value is reported as 1.49 IU. Moreover, the “plasma vitamin E level, elevated” value in [8] (400-800 IU daily dose, basal 34.2 μmol/L) is 58 µmol/L. In addition, the “average elevation in the plasma vitamin E level above the basal fasting level” value in series [8] (400-800 IU daily dose) was 70%. Also, the “reduction of the risk of non-fatal heart attacks” value in series [8] (400 IU once per day in capsules, patients with coronary atherosclerosis) was 77%.

For the compound `CC(=O)Oc1c(C)c(C)c2c(c1C)CCC(C)(CCCC(C)CCCC(C)CCCC(C)C)O2` (racemic) [all-rac-α-tocopherol acetate], the “Plasma Vit E Increase” value in [9] (capsules 25 IU/day, above basal fasting level) is 19%. Also, the “Vit. E/Chol. ratio Incr.” value in series [9] (capsules 100 IU/day) was 35%; in series [9] (capsules 200 IU/day), 65%; in series [9] (capsules 400 IU/day), 115%. For the same compound, the “average increase in plasma vitamin E” value in [10] is listed as 83%. For the same compound, the “specific activity (IU per milligram)” value in [2] is 1.00 IU.
